Data published in ChEMBL document CHEMBL4800722, “Data for DCP probe BI 605906” (2021).

Legend:
[1] = target: Serine/threonine-protein kinase 32C (Homo sapiens) (UniProt Q86UX6); conditions: Compound concentration 1.0 uM
[2] = target: Serine/threonine-protein kinase TAO2 (Homo sapiens) (UniProt Q9UL54); conditions: Compound concentration 1.0 uM
[3] = target: Serine/threonine-protein kinase 38-like (Homo sapiens) (UniProt Q9Y2H1); experiment: STK38L (NDR2) Invitrogen Lab (UK) kinase screen (BI); conditions: Compound concentration 1.0 uM
[4] = target: Rhodopsin kinase GRK7 (Homo sapiens) (UniProt Q8WTQ7); conditions: Compound concentration 1.0 uM
[5] = target: Mitogen-activated protein kinase 8 (Homo sapiens) (UniProt P45983)
[6] = target: Serine/threonine-protein kinase Sgk2 (Homo sapiens) (UniProt Q9HBY8); conditions: Compound concentration 1.0 uM
[7] = target: Tyrosine-protein kinase receptor UFO (Homo sapiens) (UniProt P30530)
Sequence of Tyrosine-protein kinase receptor UFO (Homo sapiens) (P30530 whole entry): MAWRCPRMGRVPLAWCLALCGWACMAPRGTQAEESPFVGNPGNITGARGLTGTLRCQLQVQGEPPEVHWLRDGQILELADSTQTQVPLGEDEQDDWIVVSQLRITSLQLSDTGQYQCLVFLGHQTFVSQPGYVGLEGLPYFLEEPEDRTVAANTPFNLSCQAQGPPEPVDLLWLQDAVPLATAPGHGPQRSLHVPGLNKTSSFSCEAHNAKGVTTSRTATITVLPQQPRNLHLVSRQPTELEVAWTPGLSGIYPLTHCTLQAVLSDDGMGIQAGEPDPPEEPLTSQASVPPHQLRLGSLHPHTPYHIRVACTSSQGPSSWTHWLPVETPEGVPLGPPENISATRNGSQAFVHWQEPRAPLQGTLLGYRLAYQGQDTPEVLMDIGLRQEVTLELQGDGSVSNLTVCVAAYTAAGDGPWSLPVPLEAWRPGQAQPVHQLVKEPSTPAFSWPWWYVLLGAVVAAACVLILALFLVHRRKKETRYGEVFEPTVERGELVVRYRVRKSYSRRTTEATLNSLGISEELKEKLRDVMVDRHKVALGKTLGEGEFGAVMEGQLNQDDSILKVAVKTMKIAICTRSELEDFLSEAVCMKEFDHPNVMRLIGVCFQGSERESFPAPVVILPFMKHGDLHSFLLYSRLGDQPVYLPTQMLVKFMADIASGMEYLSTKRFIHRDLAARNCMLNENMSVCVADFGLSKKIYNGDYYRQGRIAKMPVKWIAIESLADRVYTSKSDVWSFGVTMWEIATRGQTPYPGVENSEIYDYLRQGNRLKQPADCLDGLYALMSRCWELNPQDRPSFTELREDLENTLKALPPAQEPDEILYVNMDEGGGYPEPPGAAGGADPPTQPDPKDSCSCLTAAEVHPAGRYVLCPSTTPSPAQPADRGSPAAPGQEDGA

[8] = target: Proto-oncogene tyrosine-protein kinase Src (Homo sapiens) (UniProt P12931)
Sequence of Proto-oncogene tyrosine-protein kinase Src (Homo sapiens) (P12931 2-536 limits assumed): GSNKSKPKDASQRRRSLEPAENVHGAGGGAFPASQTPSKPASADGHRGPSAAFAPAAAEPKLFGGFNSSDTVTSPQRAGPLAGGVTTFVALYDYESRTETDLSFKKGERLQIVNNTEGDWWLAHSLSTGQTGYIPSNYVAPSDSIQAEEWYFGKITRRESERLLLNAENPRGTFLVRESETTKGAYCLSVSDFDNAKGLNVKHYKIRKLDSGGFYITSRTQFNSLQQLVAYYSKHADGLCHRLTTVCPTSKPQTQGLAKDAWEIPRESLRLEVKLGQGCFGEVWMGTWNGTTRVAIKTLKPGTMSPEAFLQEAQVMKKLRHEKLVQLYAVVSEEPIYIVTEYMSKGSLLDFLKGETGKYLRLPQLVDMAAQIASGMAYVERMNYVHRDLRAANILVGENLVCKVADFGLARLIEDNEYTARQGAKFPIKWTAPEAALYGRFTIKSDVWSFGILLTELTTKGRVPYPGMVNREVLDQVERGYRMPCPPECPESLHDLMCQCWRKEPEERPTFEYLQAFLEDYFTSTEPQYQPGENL

[9] = target: Death-associated protein kinase 1 (Homo sapiens) (UniProt P53355); conditions: Compound concentration 1.0 uM
[10] = target: 3-hydroxy-3-methylglutaryl-coenzyme A reductase (Rattus norvegicus) (UniProt P51639); experiment: HMGCOARED Eurofins SafetyScreen44 (BI); conditions: Compound concentration 10.0 uM
[11] = target: CDC7/DBF4 (Cell division cycle 7-related protein kinase/Activator of S phase kinase) (Homo sapiens) (UniProt Q9UBU7+O00311); experiment: CDC7/DBF4 Invitrogen Lab (UK) kinase screen (BI); assay type: protein-complex assay; conditions: Compound concentration 1.0 uM
[12] = target: Serine/threonine-protein kinase Nek9 (Homo sapiens) (UniProt Q8TD19); conditions: Compound concentration 1.0 uM
[13] = target: Tyrosine-protein kinase Fyn (Homo sapiens) (UniProt P06241); conditions: Compound concentration 1.0 uM
[14] = target: AP2-associated protein kinase 1 (Homo sapiens, UniProt Q2M2I8); experiment: NanoBRET (SGC-FFM) (AAK1)
[15] = target: Endothelin-1 receptor (Homo sapiens) (UniProt P25101); conditions: Compound concentration 100.0 uM
[16] = target: Muscarinic acetylcholine receptor M4 (Homo sapiens) (UniProt P08173); conditions: Compound concentration 10.0 uM
[17] = target: Prostaglandin G/H synthase 1 (Homo sapiens) (UniProt P23219); conditions: Compound concentration 10.0 uM
[18] = target: Serine/threonine-protein kinase 25 (Homo sapiens) (UniProt O00506); conditions: Compound concentration 1.0 uM
[19] = target: Adrenergic receptor beta (Rattus norvegicus) (UniProt P18090+P10608+P26255)
[20] = target: RAC-beta serine/threonine-protein kinase (Homo sapiens) (UniProt P31751); experiment: PKB-BETA DUNDEE kinase screen (BI); conditions: Compound concentration 10.0 uM
[21] = target: Insulin receptor (Homo sapiens) (UniProt P06213)
Sequence of Insulin receptor (Homo sapiens) (P06213 28-758 limits assumed): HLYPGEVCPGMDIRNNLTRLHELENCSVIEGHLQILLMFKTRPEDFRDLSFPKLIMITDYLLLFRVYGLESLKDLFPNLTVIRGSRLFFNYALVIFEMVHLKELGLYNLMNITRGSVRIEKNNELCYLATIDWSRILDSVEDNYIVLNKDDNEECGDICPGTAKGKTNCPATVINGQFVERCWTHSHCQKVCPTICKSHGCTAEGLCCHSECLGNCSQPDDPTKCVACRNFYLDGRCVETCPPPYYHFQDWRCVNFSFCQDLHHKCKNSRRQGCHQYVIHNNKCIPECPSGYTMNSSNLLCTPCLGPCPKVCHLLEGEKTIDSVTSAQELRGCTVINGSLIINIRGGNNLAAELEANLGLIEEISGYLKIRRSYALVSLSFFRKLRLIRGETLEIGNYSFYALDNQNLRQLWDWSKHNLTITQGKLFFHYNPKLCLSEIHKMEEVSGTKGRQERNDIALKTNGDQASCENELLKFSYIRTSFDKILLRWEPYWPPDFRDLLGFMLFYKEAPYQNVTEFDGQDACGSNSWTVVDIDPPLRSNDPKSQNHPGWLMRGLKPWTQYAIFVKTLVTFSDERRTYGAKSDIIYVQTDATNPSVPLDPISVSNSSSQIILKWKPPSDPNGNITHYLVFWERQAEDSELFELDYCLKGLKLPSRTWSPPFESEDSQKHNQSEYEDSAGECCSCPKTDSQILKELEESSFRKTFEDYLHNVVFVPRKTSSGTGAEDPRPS
Sequence of Insulin receptor (Homo sapiens) (P06213 763-1382 limits assumed): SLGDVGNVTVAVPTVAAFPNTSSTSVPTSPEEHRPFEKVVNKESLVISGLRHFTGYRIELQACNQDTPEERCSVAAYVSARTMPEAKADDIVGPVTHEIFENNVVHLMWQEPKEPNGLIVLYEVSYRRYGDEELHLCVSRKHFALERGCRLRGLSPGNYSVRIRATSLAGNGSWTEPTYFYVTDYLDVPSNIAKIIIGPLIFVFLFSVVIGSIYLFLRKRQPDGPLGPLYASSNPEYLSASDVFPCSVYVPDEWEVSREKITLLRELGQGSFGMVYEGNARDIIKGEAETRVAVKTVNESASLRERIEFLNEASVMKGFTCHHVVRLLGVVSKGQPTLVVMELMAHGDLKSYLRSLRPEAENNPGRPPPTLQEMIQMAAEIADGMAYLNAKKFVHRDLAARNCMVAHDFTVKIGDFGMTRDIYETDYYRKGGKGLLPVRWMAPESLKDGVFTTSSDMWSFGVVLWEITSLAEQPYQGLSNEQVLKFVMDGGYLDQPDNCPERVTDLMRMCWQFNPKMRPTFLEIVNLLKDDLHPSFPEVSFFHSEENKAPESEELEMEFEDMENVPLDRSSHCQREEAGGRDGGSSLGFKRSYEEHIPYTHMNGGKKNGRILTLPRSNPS

[22] = target: Serine/threonine-protein kinase PLK3 (Homo sapiens) (UniProt Q9H4B4); conditions: Compound concentration 1.0 uM
[23] = target: Mitogen-activated protein kinase 15 (Homo sapiens) (UniProt Q8TD08); experiment: MAPK15 (ERK7) Invitrogen Lab (UK) kinase screen (BI); conditions: Compound concentration 1.0 uM
[24] = target: Calcium/calmodulin-dependent protein kinase type 1 (Homo sapiens) (UniProt Q14012); experiment: CAMK1 DUNDEE kinase screen (BI); conditions: Compound concentration 10.0 uM
[25] = target: Dual specificity protein kinase TTK (Homo sapiens) (UniProt P33981); experiment: TTK Invitrogen Lab (UK) kinase screen (BI); conditions: Compound concentration 1.0 uM
[26] = target: Adenosine receptor A1 (Homo sapiens) (UniProt P30542); experiment: A1/HU Eurofins SafetyScreen44 (BI); conditions: Compound concentration 100.0 uM
[27] = target: DNA-dependent protein kinase catalytic subunit (Homo sapiens) (UniProt P78527); conditions: Compound concentration 1.0 uM
[28] = target: Inhibitor of nuclear factor kappa-B kinase subunit alpha (Homo sapiens) (UniProt O15111); experiment: CHUK_IKKA Invitrogen Lab (UK) kinase screen (BI)
Sequence of Inhibitor of nuclear factor kappa-B kinase subunit alpha (Homo sapiens) (O15111 whole entry): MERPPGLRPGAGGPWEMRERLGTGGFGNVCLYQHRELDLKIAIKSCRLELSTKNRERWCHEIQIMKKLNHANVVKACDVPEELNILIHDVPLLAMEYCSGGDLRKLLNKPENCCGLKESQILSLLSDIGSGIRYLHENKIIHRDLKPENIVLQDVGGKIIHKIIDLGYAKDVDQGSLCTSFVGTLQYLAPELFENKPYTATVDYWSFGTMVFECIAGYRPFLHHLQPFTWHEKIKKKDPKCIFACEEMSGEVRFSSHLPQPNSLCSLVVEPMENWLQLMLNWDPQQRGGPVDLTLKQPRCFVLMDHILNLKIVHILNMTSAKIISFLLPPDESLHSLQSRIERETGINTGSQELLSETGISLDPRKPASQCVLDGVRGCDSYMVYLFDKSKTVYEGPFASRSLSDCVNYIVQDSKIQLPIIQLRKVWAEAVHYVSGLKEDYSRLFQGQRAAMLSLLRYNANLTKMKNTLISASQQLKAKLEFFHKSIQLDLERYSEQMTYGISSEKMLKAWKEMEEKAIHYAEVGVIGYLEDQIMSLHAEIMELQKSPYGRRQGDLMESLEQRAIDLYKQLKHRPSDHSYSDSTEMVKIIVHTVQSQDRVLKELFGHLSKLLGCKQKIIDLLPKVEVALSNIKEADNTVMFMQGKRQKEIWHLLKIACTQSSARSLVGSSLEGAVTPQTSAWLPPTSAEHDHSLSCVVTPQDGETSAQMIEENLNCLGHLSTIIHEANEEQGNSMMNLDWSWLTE

[29] = target: Mitogen-activated protein kinase 10 (Homo sapiens) (UniProt P53779); experiment: JNK3 ALPHA 1 DUNDEE kinase screen (BI); conditions: Compound concentration 10.0 uM
[30] = target: Testis-specific serine/threonine-protein kinase 2 (Homo sapiens) (UniProt Q96PF2); conditions: Compound concentration 1.0 uM
[31] = target: Sodium-dependent dopamine transporter (Homo sapiens, UniProt Q01959); conditions: Compound concentration 10.0 uM
[32] = target: Ephrin type-A receptor 6 (Homo sapiens) (UniProt Q9UF33); conditions: Compound concentration 1.0 uM
[33] = target: Serine/threonine-protein kinase Chk2 (Homo sapiens) (UniProt O96017); experiment: CHEK2 Invitrogen Lab (UK) kinase screen (BI); conditions: Compound concentration 1.0 uM
[34] = target: Insulin-like growth factor 1 receptor (Homo sapiens) (UniProt P08069)
Sequence of Insulin-like growth factor 1 receptor (Homo sapiens) (P08069 31-736 limits assumed): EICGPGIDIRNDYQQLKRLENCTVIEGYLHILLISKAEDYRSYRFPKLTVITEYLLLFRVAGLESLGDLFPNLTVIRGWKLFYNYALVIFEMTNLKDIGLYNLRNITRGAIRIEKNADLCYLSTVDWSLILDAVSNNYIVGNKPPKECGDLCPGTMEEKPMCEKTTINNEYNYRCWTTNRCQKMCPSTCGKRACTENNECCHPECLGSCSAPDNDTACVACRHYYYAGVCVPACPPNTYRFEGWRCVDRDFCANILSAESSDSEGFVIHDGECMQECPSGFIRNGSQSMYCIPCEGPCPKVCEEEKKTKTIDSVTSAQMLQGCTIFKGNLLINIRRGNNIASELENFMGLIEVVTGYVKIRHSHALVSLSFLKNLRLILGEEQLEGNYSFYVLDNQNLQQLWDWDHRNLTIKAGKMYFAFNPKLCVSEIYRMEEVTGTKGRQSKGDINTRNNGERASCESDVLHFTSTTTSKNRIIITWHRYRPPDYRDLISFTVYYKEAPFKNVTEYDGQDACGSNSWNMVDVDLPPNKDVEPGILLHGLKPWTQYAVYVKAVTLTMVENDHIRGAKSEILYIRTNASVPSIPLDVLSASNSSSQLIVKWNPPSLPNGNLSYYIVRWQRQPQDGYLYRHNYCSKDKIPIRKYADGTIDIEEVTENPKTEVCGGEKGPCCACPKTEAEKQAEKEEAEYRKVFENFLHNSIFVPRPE
Sequence of Insulin-like growth factor 1 receptor (Homo sapiens) (P08069 741-1367 limits assumed): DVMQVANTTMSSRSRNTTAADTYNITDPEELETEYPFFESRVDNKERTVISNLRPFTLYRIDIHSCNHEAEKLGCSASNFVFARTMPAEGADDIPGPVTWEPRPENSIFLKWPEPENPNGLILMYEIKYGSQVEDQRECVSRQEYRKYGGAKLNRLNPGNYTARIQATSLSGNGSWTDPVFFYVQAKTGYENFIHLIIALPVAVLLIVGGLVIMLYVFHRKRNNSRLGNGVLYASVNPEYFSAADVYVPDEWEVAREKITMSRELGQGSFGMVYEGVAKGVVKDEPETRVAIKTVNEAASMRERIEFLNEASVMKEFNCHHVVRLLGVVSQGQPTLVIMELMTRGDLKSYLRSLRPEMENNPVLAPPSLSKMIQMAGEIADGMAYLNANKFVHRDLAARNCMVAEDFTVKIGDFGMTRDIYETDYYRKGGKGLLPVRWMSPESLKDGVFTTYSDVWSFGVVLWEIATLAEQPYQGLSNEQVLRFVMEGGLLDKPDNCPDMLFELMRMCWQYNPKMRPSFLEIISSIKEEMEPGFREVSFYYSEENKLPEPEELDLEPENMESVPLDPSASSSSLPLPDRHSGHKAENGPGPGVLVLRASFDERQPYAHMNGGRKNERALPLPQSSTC

[35] = target: Mitogen-activated protein kinase kinase kinase 10 (Homo sapiens) (UniProt Q02779); conditions: Compound concentration 1.0 uM
[36] = target: Protein kinase C alpha type (Homo sapiens) (UniProt P17252); experiment: PKCA DUNDEE kinase screen (BI); conditions: Compound concentration 10.0 uM
[37] = target: Platelet-derived growth factor receptor beta (Homo sapiens) (UniProt P09619)
[38] = target: Phosphatidylinositol 4-kinase type 2-alpha (Homo sapiens) (UniProt Q9BTU6); conditions: Compound concentration 1.0 uM
[39] = target: Epithelial discoidin domain-containing receptor 1 (Homo sapiens) (UniProt Q08345); experiment: DDR1 Invitrogen Lab (UK) kinase screen (BI); conditions: Compound concentration 1.0 uM
[40] = target: Ankyrin repeat and protein kinase domain-containing protein 1 (Homo sapiens) (UniProt Q8NFD2); conditions: Compound concentration 1.0 uM
[41] = target: GABA B receptor (Rattus norvegicus) (UniProt Q9Z0U4+O88871); experiment: GABAB/RA Eurofins SafetyScreen44 (BI); assay type: protein-complex assay; conditions: Compound concentration 10.0 uM
[42] = target: Mitogen-activated protein kinase 11 (Homo sapiens) (UniProt Q15759); conditions: Compound concentration 1.0 uM

CCC(F)(F)c1cc(N2CCC(S(C)(=O)=O)CC2)nc2sc(C(N)=O)c(N)c12 [BI-605906]
residual activity [1]: 99%
residual activity [2]: 101%
residual activity [3]: 125%
residual activity [4]: 101%
residual activity ([5]; Compound concentration 1.0 uM): 91%
residual activity ([5]; Compound concentration 10.0 uM): 100%
residual activity [6]: 99%
residual activity ([7]; Compound concentration 1.0 uM): 98%
residual activity ([7]; Compound concentration 10.0 uM): 85%
residual activity ([8]; Compound concentration 1.0 uM): 79%
residual activity ([8]; Compound concentration 10.0 uM): 92%
residual activity [9]: 100%
residual activity [10]: 85%
residual activity [11]: 88%
residual activity [12]: 99%
residual activity [13]: 97%
IC50 [14]: 7 µM (not active)
residual activity [15]: 101%
inhibition [16]: 13.3%
residual activity [17]: 105%
residual activity [18]: 100%
residual activity ([19]; Compound concentration 10.0 uM): 86%
residual activity ([19]; Compound concentration 100.0 uM): 94%
residual activity [20]: 98.1%
residual activity ([21]; Compound concentration 1.0 uM): 94%
residual activity ([21]; Compound concentration 10.0 uM): 93%
residual activity [22]: 93%
residual activity [23]: 103%
residual activity [24]: 78.4%
residual activity [25]: 75%
residual activity [26]: 77%
residual activity [27]: 90%
residual activity ([28]; Compound concentration 1.0 uM): 67%
residual activity ([28]; Compound concentration 10.0 uM): 27%
residual activity [29]: 72.4%
residual activity [30]: 91%
residual activity [31]: 105%
residual activity [32]: 91%
residual activity [33]: 79%
residual activity ([34]; Compound concentration 1.0 uM): 95%
residual activity ([34]; Compound concentration 10.0 uM): 99%
residual activity [35]: 98%
residual activity [36]: 66.9%
residual activity ([37]; Compound concentration 1.0 uM): 89%
residual activity ([37]; Compound concentration 10.0 uM): 87%
residual activity [38]: 92%
residual activity [39]: 84%
residual activity [40]: 95%
residual activity [41]: 113%
residual activity [42]: 98%
